Experimental data: patent US5914339A, “Substituted 1,3-benzodioxoles” (American Home Products Corporation, priority 1997, dated 1999)
Like-named read-outs stand apart in the source and are kept apart here. Each block holds one molecule with its values, some of them ahead of it.

How the values were obtained:
[1] = target: human β2 adrenergic receptor (Homo sapiens, UniProt P07550); assay: cell-based; conditions: for activation at 0.01 µM: 10 min, read-out: β2: % of isoproterenol activity (increase in cAMP)
In short: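 CHO cells transfected with human β1 or β2 adrenergic receptors were grown to confluence and exposed to compound at 10 nM for 10 min at 37° C. Cellular cAMP was measured by scintillation proximity assay. Activity is expressed as % of the response to 10 μM isoproterenol; EC50 (μM) was determined for selected compounds.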

[2] = target: human β1 adrenergic receptor (Homo sapiens, UniProt P08588); assay: Human β1 adrenergic receptor agonist activity, cAMP increase in transfected CHO cells; format: cell-based
Method: (§1) The activity of the test compounds on human β-adrenergic receptors was determined with Chinese hamster ovary (CHO) cells transfected with human β2, or β1 adrenergic receptors. Agonist activity is indicated by increased cAMP levels in the CHO cells. Selectivity of the test compounds for the β3 receptor was assessed by comparison with results in β2 and β1 adrenergic receptor transfected cells.
1). Chinese hamster ovary (CHO) cells transfected with human β2, or β1 adrenergic receptors were used in the assay.
2). Cells were grown to confluent conditions in 24 well plates.
3). Drugs were dissolved in DMSO at a concentration of 10 μM.
4). Cells were incubated with drug at 10 nM concentration for 10 min at 37° C.
5). Cell cAMP concentrations were assayed using a scintillation proximity assay kit from Amersham Corp., Chicago, Ill.
6). Activities for the test compounds are expressed as a percentage of the isoproterenol response.
Production of the CHO cells transfected with human β2, or β1 adrenergic receptors, and compound test procedures utilizing the CHO cells, are described by Emorine et al. in their article "Molecular Characterization of the Human Beta3 -Adrenergic Receptor", Science 1989, 245(8), 1118-1121 and by Muzzin et al. in the article "An Adipose Tissue-Specific Beta3 -Adrenergic Receptor", J. Biol. Chem.1991, 266, 24053-24058.
^a Human β receptors expressed in Chinese hamster ovary cells,
compounds tested at 10 nM, results expressed as % of isoproterenol
activity (increase in cAMP) at 10 μM. EC50 (μM) values
determined for selected compounds.

[3] = test system: plasma free fatty acids; assay: Effects on plasma free fatty acid levels in rats; format: in vivo, rat; conditions: for ED50: Rattus norvegicus, 50 min, read-out: Rat Free Fatty Acid: ED50
Method: Rats respond to a single oral dose of β3 agonists by increasing plasma free fatty acids (FFA) in response to β3 receptor stimulation on the plasma membrane of the fat cell. 5-{2-[2-(3-Chloro-phenyl)-2-hydroxy-ethylamino]-propyl}-benzo[1,3]dioxole- 2,2-dicarboxylic acid diisopropyl ester (Standard 2) was used as a standard compound. All test compounds were dosed at 0.1 mg/kg and compared to the response by Standard 2.
1). Drugs were dissolved in DMSO at 10 mg/ml.
2). Twenty μl of the DMSO-drug solution was added to 10 mL methyl cellulose:tween-80 (0.5%:0.1%) for a final concentration of 20 μg/mL.
3). Methyl cellulose:tween-80 drug suspension was given via gavage (1 mL/200 g body weight; or 0.1 mg/kg) to rats and blood was collected 50 min later.
4). Plasma was analyzed for free fatty acids using a kit supplied by Biochemical Diagnostics Inc. (Brentwood, N.Y.).
5). Drug response was calculated from the formula below. [formula]
^b Elevation of plasma free fatty acids in rats, compounds tested at
0.1 mg/kg, results expressed as % of
5{2[2(3-Chloro-phenyl)-2-hydroxy-ethylaminopropylbenzo[1,3dioxole-2,2-dic
rboxylic acid diisopropyl ester response (78% increase) at 0.1 mg/kg.
ED50 (mg/kg) values determined for selected compounds.

[4] = test system: plasma glucose; assay: Effects on hyperglycemia in db/db mice, plasma glucose; format: in vivo, mouse (male, db/db (C57BL/KsJ)); conditions: Mus musculus, po, 96 h; p.o., 4 days, mean of 2 and 4 h values on Day 4; footnote c gives mg/kg/day; read-out: db/db Mice Plasma Glucose: ED50 for lowering of plasma glucose
[5] = test system: human β-adrenergic receptors; assay: cAMP elevation in all 3 transfected CHO cell types; format: cell-based; conditions: 10 μM, all 3 cell types
Method: as §1
4). […]

[6] = compounds tested at 10 nM, isoproterenol at 10 μM, CHO cells, 10 min at 37° C
[7] = elevation of plasma free fatty acids, oral gavage, selected compounds
[8] = cAMP in CHO cells, selected compounds, read-out: β2: EC50
[9] = cAMP in CHO cells, selected compounds, read-out: β1: EC50

human β1 adrenergic receptor, sequence (P08588 whole entry): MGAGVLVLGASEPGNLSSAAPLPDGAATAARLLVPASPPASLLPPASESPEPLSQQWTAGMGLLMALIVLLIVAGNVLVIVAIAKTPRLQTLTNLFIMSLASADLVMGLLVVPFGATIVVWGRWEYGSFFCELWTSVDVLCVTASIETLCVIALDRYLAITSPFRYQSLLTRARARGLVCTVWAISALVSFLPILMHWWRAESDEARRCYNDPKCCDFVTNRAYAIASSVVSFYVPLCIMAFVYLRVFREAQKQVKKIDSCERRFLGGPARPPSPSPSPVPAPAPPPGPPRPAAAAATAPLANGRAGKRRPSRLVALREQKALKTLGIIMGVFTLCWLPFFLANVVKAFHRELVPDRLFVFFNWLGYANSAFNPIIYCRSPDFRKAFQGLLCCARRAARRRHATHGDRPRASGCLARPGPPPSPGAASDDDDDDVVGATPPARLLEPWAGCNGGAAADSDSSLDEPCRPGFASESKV

Molecule: CC(Cc1ccc2c(c1)OC(C(=O)O)(C(=O)OCC1CCC1)O2)NCC(O)c1cccc(Cl)c1 (stereo not drawn) [Example 70, 5-{2-[2-(3-Chloro-phenyl)-2-hydroxy-ethylamino]-propyl}-benzo[1,3]dioxole-2,2-dicarboxylic acid cyclobutylmethyl ester]
EC50 [1]: 48 nM
EC50 [2]: 3000 nM

Molecule: CC(C)CCOC(=O)C1(C(=O)O)Oc2ccc(C[C@@H](C)NC[C@H](O)c3cccc(Cl)c3)cc2O1 (stereo partly drawn) [Example 76, 5-{(2R)-2-[(2R)-2-(3-Chloro-phenyl)-2-hydroxy-ethylamino]-propyl}-benzo[1,3]dioxole-2,2-dicarboxylic acid (3-methylbutyl)ester]
EC50 [1]: 74 nM
EC50 [2]: 980 nM

Molecule: Carbonic acid 3-chloro-benzyl ester 2-(3-chloro-benzyloxycarbonyloxy)-4-{2-[2-(3-chloro-phenyl)-2-hydroxy-ethylamino]-propyl}-phenyl ester [Example 15]
Rat Free Fatty Acid: elevation of plasma free fatty acids, % of diisopropyl ester (Standard 2) response ([3]; 0.1 mg/kg, gavage, blood collected 50 min later): 46%
β2: % of isoproterenol activity (increase in cAMP) [1, 6]: 18%

Molecule: CC(Cc1ccc2c(c1)OC(C(=O)OCC[Si](C)(C)C)(C(=O)OCC[Si](C)(C)C)O2)NCC(O)c1cccc(Cl)c1 (stereo not drawn) [Example 31, 5-{2-[2-(3-Chloro-phenyl)-2-hydroxy-ethylamino]-propyl}-benzo[1,3]dioxole-2,2-dicarboxylic acid bis-(2-trimethylsilanyl-ethyl) ester]
ED50 ([3]; po): 0.09 mg/kg
activation at 0.01 µM ([1]; CHO): 5%

Molecule: CC(Cc1ccc2c(c1)OC(C(=O)OC(C)C)(C(=O)OC(C)C)O2)NCC(O)c1cccc(Cl)c1 (stereo not drawn) [5-{2-[2-(3-Chloro-phenyl)-2-hydroxy-ethylamino]-propyl}-benzo[1,3]dioxole-2,2-dicarboxylic acid diisopropyl ester, reference compound]
increase of plasma free fatty acids ([3]; 0.1 mg/kg, rats): 78%

Molecule: C[C@H](Cc1ccc2c(c1)OC(C(=O)O)(C(=O)OCC(C)(C)C)O2)NC[C@H](O)c1cccc(Cl)c1 (stereo partly drawn) [Example 80, 5-{(2R)-2-[(2R)-2-(3-Chloro-phenyl)-2-hydroxy-ethylamino]-propyl}-benzo[1,3]dioxole-2,2-dicarboxylic acid (2,2-dimethyl-propyl)ester]
EC50 [1]: 55 nM
EC50 [2]: 2400 nM

Molecule: CC(Cc1ccc2c(c1)OC(C(=O)OC(C)c1ccccc1)(C(=O)OC(C)c1ccccc1)O2)NCC(O)c1cccc(Cl)c1 (stereo not drawn) [Example 16, 5-{2-[2-(3-Chloro-phenyl)-2-hydroxy-ethylamino]-propyl}-benzo[1,3]dioxole-2,2-dicarboxylic acid bis-(1-phenyl-ethyl) ester]
ED50 [3, 7]: 0.128 mg/kg

Molecule: CC(C)NCC(O)c1ccc(O)c(O)c1 (stereo not drawn) [Isoproterenol]
cAMP elevation [5]: maximal cAMP elevation

Second part, led by results:

EC50 [1, 8]: 420 nM
EC50 [2, 9]: 8400 nM
Molecule: CC(Cc1ccc2c(c1)OC(C(=O)OCC1CCC1)(C(=O)OCC1CCC1)O2)NCC(O)c1cccc(Cl)c1 (stereo not drawn) [Example 40, 5-{2-[2-(3-Chloro-phenyl)-2-hydroxy-ethylamino]-propyl}-benzo[1,3]dioxole-2,2-dicarboxylic acid bis-cyclobutylmethyl ester]
ED50 [3, 7]: 0.071 mg/kg

EC50 [1, 8]: 325 nM
EC50 [2, 9]: 5000 nM
Molecule: C[C@H](Cc1ccc2c(c1)OC(C(=O)OCC(C)(C)C)(C(=O)OCC(C)(C)C)O2)NC[C@H](O)c1cccc(Cl)c1 [Example 78, 5-{(2R)-2-[(2R)-2-(3-Chloro-phenyl)-2-hydroxy-ethylamino]-propyl}-benzo[1,3]dioxole-2,2-dicarboxylic acid bis-(2,2-dimethyl-propyl) ester]
ED50 [3, 7]: 0.027 mg/kg
ED50 [4]: 0.028 mg/kg

activation at 0.01 µM [1, 6]: 14%
Molecule: CC(Cc1ccc2c(c1)OC(C(=O)OCCc1ccsc1)(C(=O)OCCc1ccsc1)O2)NCC(O)c1cccc(Cl)c1 (stereo not drawn) [Example 71, 5-{2-[2-(3-Chloro-phenyl)-2-hydroxy-ethylamino]-propyl}-benzo[1,3]dioxole-2,2-dicarboxylic acid bis 2-(3-Thienyl)ethyl-ester]
ED50 [3, 7]: 0.076 mg/kg

EC50 [1, 8]: 58 nM
EC50 [2, 9]: 5400 nM
Molecule: CC(C)CCOC(=O)C1(C(=O)OCCC(C)C)Oc2ccc(C[C@@H](C)NC[C@H](O)c3cccc(Cl)c3)cc2O1 [Example 75, 5-{(2R)-2-[(2R)-2-(3-Chloro-phenyl)-2-hydroxy-ethylamino]-propyl}-benzo[1,3]dioxole-2,2-dicarboxylic acid bis-(3-methylbutyl)ester]
ED50 [3, 7]: 0.026 mg/kg
ED50 [4]: 0.11 mg/kg

EC50 [1, 8]: 59 nM
EC50 [2, 9]: 380 nM
Molecule: C[C@H](Cc1ccc2c(c1)OC(C(=O)O)(C(=O)OCCC(C)(C)C)O2)NC[C@H](O)c1cccc(Cl)c1 (stereo partly drawn) [Example 81, 5-{(2R)-2-[(2R)-2-(3-Chloro-phenyl)-2-hydroxy-ethylamino]-propyl}-benzo[1,3]dioxole-2,2-dicarboxylic acid (3,3-dimethylbutyl) ester]

activation at 0.01 µM [1, 6]: 2%
Molecule: CC(Cc1ccc2c(c1)OC(C(=O)OCCOC(C)C)(C(=O)OCCOC(C)C)O2)NCC(O)c1cccc(Cl)c1 (stereo not drawn) [Example 21, 5-{2-[2-(3-Chloro-phenyl)-2-hydroxy-ethylamino]-propyl}-benzo[1,3]dioxole-2,2-dicarboxylic acid bis-(2-isopropoxy-ethyl) ester]
ED50 [3, 7]: 0.086 mg/kg

EC50 [1, 8]: 22 nM
Molecule: CC(Cc1ccc2c(c1)OC(C(=O)OCCc1ccccc1)(C(=O)OCCc1ccccc1)O2)NCC(O)c1cccc(Cl)c1.Cl (stereo not drawn) [Example 2, 5-{2-[2-(3-Chloro-phenyl)-2-hydroxy-ethylamino]-propyl}-benzo[1,3]dioxole-2,2-dicarboxylic acid diphenethyl ester hydrochloride salt]
ED50 [3, 7]: 0.071 mg/kg
ED50 [4]: 0.128 mg/kg

EC50 [1, 8]: 100 nM
EC50 [2, 9]: 5900 nM
Molecule: CC(Cc1ccc2c(c1)OC(C(=O)OCCC(C)(C)C)(C(=O)OCCC(C)(C)C)O2)NCC(O)c1cccc(Cl)c1 (stereo not drawn) [Example 33, 5-{2-[2-(3-Chloro-phenyl)-2-hydroxy-ethylamino]-propyl}-benzo[1,3]dioxole-2,2-dicarboxylic acid bis-(3,3-dimethyl-butyl) ester]
ED50 [3, 7]: 0.08 mg/kg
ED50 [4]: 0.201 mg/kg

EC50 [1, 8]: 274 nM
Molecule: CC(Cc1ccc2c(c1)OC(C(=O)OCC1CC1)(C(=O)OCC1CC1)O2)NCC(O)c1cccc(Cl)c1 (stereo not drawn) [Example 38, 5-{2-[2-(3-Chloro-phenyl)-2-hydroxy-ethylamino]-propyl}-benzo[1,3]dioxole-2,2-dicarboxylic acid bis-cyclopropylmethyl ester]
ED50 [3, 7]: 0.086 mg/kg
